This is an account of results in US20220395553A1, “CXCR4 ANTAGONIST PEPTIDES” (COHBAR, INC., priority 2019, published 2022).

One experiment has as its system 3T3-L1 Mouse Adipocytes. Briefly: Free fatty acid levels in cultured mouse adipocytes. Format: cell-based. The conditions noted are these: peptide 10 μM, 20-22 hours then 3 hours with 1 nM isoproterenol; relative to isoproterenol treated cells. The method, then: The effect of the peptides on fatty acid metabolism can be assessed using an assay of free fatty acid levels in cultured cells such as mouse adipocytes. Peptides were initially prepared as 10 mM stock in DMSO and used at a final concentration of 10 μM (0.1% DMSO). […] Mouse 3T3-L1 cells purchased from ZenBio were seeded at 3,000 cells per well in 96-well plates in Pre-adipocyte Medium (Zen-Bio) and grown to confluence at 37° C. in a humidified atmosphere of 5% CO2/95% air. Two days after confluence, cells were placed in Adipocyte Differentiation Medium (Zen-Bio) and cultured for three additional days at 37° C. in a humidified atmosphere of 5% CO2/95% air. The culture media was then replaced with Adipocyte Maintenance Medium (Zen-Bio) and the cells maintained for an additional 9-12 days at 37° C. in a humidified atmosphere of 5% CO2/95% air with partial medium replacement every other day. Following 12-15 days of differentiation, test peptides were added at a final concentration of 10 μM in 0.1% DMSO and incubated for 20-22 hours in Adipocyte Maintenance Medium at 37° C. in a humidified atmosphere of 5% CO2/95% air. After 20-22 hours, 1 nM isoproterenol was added to all wells except untreated controls and test peptides were replenished. Insulin at 100 nM was added to control wells. Cells were incubated for 3 hours in Assay Buffer (Zen-Bio) at 37° C. in a humidified atmosphere of 5% CO2/95% air. Free fatty acid concentrations in the media were determined using a Free Fatty Acid Assay kit (Zen-Bio) according to the manufacturer's instructions using a Cytation 3 plate reader at 540 nm (BioTek, Winooski, Vt.). Absorbance values were corrected for untreated background and expressed relative to isoproterenol treated cells. Treatment with isoproterenol (1 nM) alone was used as the free fatty acid level stimulatory control. The relative standard deviation of the isoproterenol control was <10%. […] Free fatty acid levels for insulin (100 nM) treatment were <5% of the isoproterenol control value.

In experiment [1] the test system is SH-SY5Y Neuroblastoma Cells. Put plainly: ATP levels (CellTiter-Glo). Format: cell-based, human. The conditions noted are these: peptide 10 μM, 18-20 hours, relative to 0.1% DMSO treated control. The method, then: The effect of the peptides on cellular metabolism can be assessed using an assay of ATP levels in cultured cells such as human neuroblastoma cells. Peptides were initially prepared as 10 mM stock in DMSO and used at a final concentration of 10 μM (0.1% DMSO). […] CellTiter-Glo® Assay kit was purchased from Promega. SH-SY5Y human bone marrow neuroblastoma cell line was purchased from American Type Culture Collection (Manassas, Va.) and licensed from Memorial Sloan-Kettering Cancer Center (New York, N.Y.). SH-SY5Y cells were grown in DMEM/F12 medium supplemented with 10% FBS with 100 IU/ml penicillin and 100 μg/ml streptomycin. Cultures were maintained at 37° C. in a humidified atmosphere of 5% CO2/95% air. SH-SY5Y cells were seeded at 30,000 cells per well on 96-well plates. […] ATP levels were determined using a CellTiter-Glo Assay kit (Promega) according to the manufacturer's instructions. Luminescence for each sample well on the plate was measured using a Cytation 3 plate reader (BioTek, Winooski, Vt.). Activity was calculated relative to 0.1% DMSO treated control. The relative standard deviation of the result for the 0.1% DMSO treated control was <5%.
For orientation: ATP-based viability assays read luminescence as a measure of living cells.

Experiment [2] has as its system SH-SY5Y Neuroblastoma Cells. Put plainly: ATP levels in cells exposed to staurosporine. The conditions noted are these: peptide 10 μM plus staurosporine, 18-20 hours; <100% cytoprotective, >100% synergistic. It is filed as cell-based, human. The method, then:
Peptides were initially prepared as 10 mM stock in DMSO and tested at a final concentration of 10 μM (0.1% DMSO).
[…] CellTiter-Glo® Assay kit was purchased from Promega. SH-SY5Y human neuroblastoma cell line was purchased from American Type Culture Collection (Manassas, Va.) and licensed from Memorial Sloan-Kettering Cancer Center (New York, N.Y.). SH-SY5Y cells were grown in DMEM/F12 medium supplemented with 10% FBS with 100 IU/ml penicillin and 100 μg/ml streptomycin. Cultures were maintained at 37° C. in a humidified atmosphere of 5% CO2/95% air. SH-SY5Y cells were seeded at 30,000 cells per well on 96-well plates. […] ATP levels were determined using a CellTiter-Glo Assay kit (Promega) according to the manufacturer's instructions. Luminescence for each sample well on the plate was measured using a Cytation 3 plate reader (BioTek, Winooski, Vt.). […] A value less than 100% is indicative of a cytoprotective effect, while a value greater than 100% is indicative of a synergistic effect on viability.

The target in the next experiment is human CXCR4 (Homo sapiens, UniProt P61073). Briefly: IC50 for inhibition of CXCR4 activation, β-Arrestin recruitment (Example 22). Format: cell-based. On the set-up: host or cells: C2C12 (mouse myoblast) CXCR4 β-Arrestin PathHunter cell line. In a few lines:
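C2C12 cells co-expressing ProLink-tagged human CXCR4 and Enzyme Acceptor-tagged β-arrestin (PathHunter). Peptides tested in 10-point, 3-fold dilutions from 1 μM (1 μM–0.05 nM). Recruitment read by chemiluminescent enzyme-fragment complementation after 90 min incubation.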
(Activated receptors often draw arrestin, which recruitment assays turn into a signal.)

SMILES strings stand for the structures. Square brackets hold non-standard residues; d marks the D form. Peptide text beside a SMILES is read from it.

Sequence of human CXCR4 (P61073 whole entry, the tested form may be a part): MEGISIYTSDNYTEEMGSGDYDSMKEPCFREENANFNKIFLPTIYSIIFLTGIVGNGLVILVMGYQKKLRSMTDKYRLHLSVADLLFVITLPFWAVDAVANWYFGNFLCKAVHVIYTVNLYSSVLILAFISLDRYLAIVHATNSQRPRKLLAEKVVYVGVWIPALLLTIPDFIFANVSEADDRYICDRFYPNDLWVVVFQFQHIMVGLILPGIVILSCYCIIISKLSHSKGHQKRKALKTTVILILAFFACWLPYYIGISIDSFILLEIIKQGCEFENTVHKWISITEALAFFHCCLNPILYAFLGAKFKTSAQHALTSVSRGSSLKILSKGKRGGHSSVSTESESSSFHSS

`CC(C)C[C@H](NC(=O)[C@H](CO)NC(=O)[C@H](CO)NC(=O)[C@H](CCCNC(=N)N)NC(=O)[C@@H](C)NC(=O)[C@H](CO)NC(=O)[C@H](Cc1c[nH]cn1)NC(=O)[C@H](Cc1c[nH]cn1)NC(=O)[C@H](Cc1ccc(O)cc1)NC(=O)[C@H](CCCNC(=N)N)NC(=O)[C@H](CCC(=O)O)NC(=O)[C@@H](N)CC(C)C)C(=O)N[C@@H](CCCNC(=N)N)C(=O)N1CCC[C@H]1C(=O)N[C@@H](Cc1ccc(O)cc1)C(=O)N[C@H](C(=O)O)[C@@H](C)O` [compound 5] (H-LERYHHS[dA]RSSLRPYT-OH; N-terminus and C-terminus assumed): the “Free Fatty Acid Levels, MEAN % ISO” value in the experiment on 3T3-L1 Mouse Adipocytes was 86.9%. In experiment [1], the “ATP Levels, % Control” value stood at 97.0%. The “Percent of ATP Reduction Induced by Control” value in experiment [2] is on record as 80.0%.

In general, IC50 refers to the concentration needed to halve the response being measured. Low values mean higher potency, high ones lower potency. On to `CSCC[C@H](N)C(=O)N[C@@H](CC(C)C)C(=O)N[C@@H](CCCNC(=N)N)C(=O)N[C@@H](CCCNC(=N)N)C(=O)N[C@@H](Cc1ccc(O)cc1)C(=O)N[C@@H](Cc1c[nH]cn1)C(=O)N[C@@H](Cc1c[nH]cn1)C(=O)N[C@@H](CO)C(=O)N[C@H](C(=O)N[C@@H](CCCNC(=N)N)C(=O)N[C@@H](CO)C(=O)N[C@@H](CO)C(=O)N[C@@H](CC(C)C)C(=O)N[C@@H](CCCNC(=N)N)C(=O)N1CCC[C@H]1C(=O)N[C@@H](Cc1ccc(O)cc1)C(=O)N[C@H](C(=O)N[C@@H](CCCCN)C(=O)O)[C@@H](C)O)C(C)C` [compound 2] (H-MLRRYHHSVRSSLRPYTK-OH; N-terminus and C-terminus assumed), for which the “Free Fatty Acid Levels, MEAN % ISO” value with 3T3-L1 Mouse Adipocytes is 83.2%. Moreover, the “ATP Levels, % Control” value in experiment [1] is reported as 100.1%. Moreover, the “Percent of ATP Reduction Induced by Control” value in experiment [2] is listed as 84.5%. Also, on human CXCR4, half-maximal inhibition (IC50) required 11 nM.

In the case of `CC(C)C[C@H](NC(=O)[C@H](CO)NC(=O)[C@H](CO)NC(=O)[C@H](CCCNC(=N)N)NC(=O)[C@@H](NC(=O)[C@H](CO)NC(=O)[C@H](Cc1c[nH]cn1)NC(=O)[C@H](Cc1c[nH]cn1)NC(=O)[C@H](Cc1ccc(O)cc1)NC(=O)[C@H](CCCNC(=N)N)NC(=O)[C@H](CCCNC(=N)N)NC(=O)[C@@H](N)CC(C)C)C(C)C)C(=O)N[C@@H](CCCNC(=N)N)C(=O)N1CCC[C@H]1C(=O)N[C@@H](Cc1ccc(O)cc1)C(=O)N[C@H](C(=O)N[C@@H](CCCCN)C(=O)O)[C@@H](C)O` [compound 3] (H-LRRYHHSVRSSLRPYTK-OH; N-terminus and C-terminus assumed), the “Free Fatty Acid Levels, MEAN % ISO” value in the experiment with 3T3-L1 Mouse Adipocytes is reported as 82.0%. In addition, the “ATP Levels, % Control” value in experiment [1] stood at 102.5%. Further, the “Percent of ATP Reduction Induced by Control” value in experiment [2] is listed as 84.9%. This compound gave an IC50 against human CXCR4 of 5 nM.

With `CC(C)C[C@H](NC(=O)[C@H](CO)NC(=O)[C@H](CO)NC(=O)[C@H](CCCNC(=N)N)NC(=O)[C@@H](NC(=O)[C@H](CO)NC(=O)[C@H](Cc1c[nH]cn1)NC(=O)[C@H](Cc1c[nH]cn1)NC(=O)[C@H](Cc1ccc(O)cc1)NC(=O)[C@H](CCCNC(=N)N)NC(=O)[C@H](CCC(=O)O)NC(=O)[C@@H](N)CC(C)C)C(C)C)C(=O)N[C@@H](CCCNC(=N)N)C(=O)N1CCC[C@H]1C(=O)N[C@@H](Cc1ccc(O)cc1)C(=O)N[C@H](C(=O)N[C@@H](CCCCN)C(=O)O)[C@@H](C)O` [compound 4] (H-LERYHHSVRSSLRPYTK-OH; N-terminus and C-terminus assumed), in the experiment with 3T3-L1 Mouse Adipocytes, the “Free Fatty Acid Levels, MEAN % ISO” value is on record as 92.3%. Moreover, in experiment [1], the “ATP Levels, % Control” value was 98.5%. In experiment [2], the “Percent of ATP Reduction Induced by Control” value turned out to be 77.1%. Moreover, the IC50 against human CXCR4 was found to be 4 nM.
